Measurements as given in patent publication US20220233602A1, “GENERATION OF NEURAL STEM CELL LINES DERIVED FROM HUMAN PLURIPOTENT STEM CELLS” (Novo Nordisk A/S, priority 2019, published 2022).
“Also recorded” adds a separate entry of the source. Read-outs that look alike come from different tables or passages of the source.

Key:
hESC [1] = settings: for Rosette: 3 = high number of neural rosettes; for Thickness Epithelium: thicker columnar epithelium of the neural rosette; for Final Score: sum of the parameter scores; for Cell death: 3 = low number of pyknotic nuclei; for No Side Population (OTX2 Neg): score by OTX2 staining: 3 = no detection of OTX2 negative cells, evaluated only in conditions without NES negative cells
Procedure: The experimental protocol used for neural induction of hESC and subsequent generation and NSC line establishment can roughly be divided in three main stages—Neuroectoderm induction and NECS formation; NECS plating and rosette formation and finally NSC line establishment by replating the cells in expansion media.
50-90% confluent hESC were washed with PBS^−/− and dissociated from monolayer culture with TrypLE™ Select (Gibco) at 37° C. for approximately 5 minutes to obtain single-cell suspension. The single-cell suspension of hESCs was resuspended in NutriStem® supplemented with 10 μM ROCKi (Y-27632) and as standard 1 mL with cell densities of 1×10^5-2×10^5 cells per mL was seeded into one single well (around 3.5 cm^2) of a 12-well plates (Day 0).
At day 1, around 50% of the medium was exchanged with NECS media consisting of DMEM/F12 GlutaMAX™ supplement (Gibco™) supplemented with 20 U/mL Penicillin-streptomycin, 1% N-2 Supplement (Gibco™) and GW788388 or RepSox in different concentrations, without ROCKi. To initiate rotary NECS formation, plates were from day 1-6 placed on a Multi Bio 3D Mini-shaker (BioSan) at different speeds, timeslots, levels and angle. As an example, one optimal condition was:
The NECS media was exchanged everyday by removing half of the media and adding fresh medium. […] After 6 days in dynamic conditions all NECS were collected and plated in 2D on 48-well plates, laminin coated. For coating, 1:50 natural mouse laminin (L2020-1MG, Sigma-Aldrich, 1 mg/ml) was performing fine, but the type of laminin can be also extended to LN-521 or LN-511 (BioLamina). From day 7 to day 10, now in attachment in 2D, all media was removed, and cells were re-feed with fresh NECS media. An example of the different steps can be shown in FIG. 4, with images after Day 3 (dynamic suspension), Day 8 (neural rosettes in 2D) and Day 10 (before single cell dissociation).
The parameters measured were cell death, rosette formation, a monolayer formation in 2D, thickness of the epithelium formed in the rosette structure, and the absence of side population (all cells being NES and OTX2 positive), i.e. purity of the cell population
Cell death: Monitored by DAPI (4′,6-diamidino-2-phenylindole) staining. Pyknosis, or karyopyknosis, is the irreversible condensation of chromatin in the nucleus of a cell undergoing necrosis or apoptosis. After visual inspection under the fluorescent microscope, a score of 0 represent high number of pyknotic nuclei and a score of 3 a low number of pyknotic nuclei.
Rosette numbers: Monitored by DAPI, ZO1 and NES stainings. After visual inspection under the fluorescent microscope, a score of 0 represent low number of neural rosettes nuclei and a score of 3 a high number of rosettes.
Monolayer formation: Monitored by brightfield and DAPI staining. After visual inspection under the microscope, a score of 3 represent a flat monolayer of cells after NECS attachment.
Thickness of the rosette columnar epithelium: Monitored by DAPI staining. After visual inspection under the fluorescent microscope, a score of 3 represent a broader, thicker columnar epithelium of the neural rosette.
Side population: Monitored by specific stainings of NES and OTX2. After visual inspection under the fluorescent microscope, a score of […] represents no detection of NES negative cells. Only in conditions without NES negative cells, the OTX2 population was evaluated. In those cases, a score of 3 represents no detection of OTX2 negative cells.

hESC [2] = experiment: Differentiation protocol for NECS and rosette formation (brightfield, NES/ZO1 staining); type: cell-based, human; settings: for neural rosette formation, RepSox compared to GW788388: hESCs treated, NES and ZO1 staining (FIG. 6); for morphology of NECS: suspension culture, brightfield (FIG. 3)
Text: As an example, one optimal condition was:

[3] = score by DAPI, ZO1, NES staining: 0 = low number, RepSox 25 μM, LY2157299 10 μM, TEW-7197 10 μM, GW788388 10 ng/ml, SB525334 10 μM, SB431542 10 μM, SB431542+LDN 10 μM+10 μM, LY2109761 2 μM
[4] = score by DAPI: 3 = broader, RepSox 25 μM, LY2157299 10 μM, TEW-7197 10 μM, GW788388 10 ng/ml, SB525334 10 μM, SB431542 10 μM, SB431542+LDN 10 μM+10 μM, LY2109761 2 μM
[5] = score by NES staining: 6 = no detection of NES negative cells, RepSox 25 μM, LY2157299 10 μM, TEW-7197 10 μM, GW788388 10 ng/ml, SB525334 10 μM, SB431542 10 μM, SB431542+LDN 10 μM+10 μM, LY2109761 2 μM
[6] = score by brightfield and DAPI: 3 = flat monolayer of cells after NECS attachment, RepSox 25 μM, LY2157299 10 μM, TEW-7197 10 μM, GW788388 10 ng/ml, SB525334 10 μM, SB431542 10 μM, SB431542+LDN 10 μM+10 μM, LY2109761 2 μM
[7] = RepSox 25 μM, LY2157299 10 μM, TEW-7197 10 μM, GW788388 10 ng/ml, SB525334 10 μM, SB431542 10 μM, SB431542+LDN 10 μM+10 μM, LY2109761 2 μM
[8] = score by DAPI staining: 0 = high number, RepSox 25 μM, LY2157299 10 μM, TEW-7197 10 μM, GW788388 10 ng/ml, SB525334 10 μM, SB431542 10 μM, SB431542+LDN 10 μM+10 μM, LY2109761 2 μM
[9] = RepSox 25 μM, LY2157299 10 μM, TEW-7197 10 μM, SB431542+LDN 10 μM+10 μM, LY2109761 2 μM
[10] = Low concentration (RepSox 0.25 μM, GW788388 0.1 ng/ml, SB525334 0.1 μM), score by DAPI: 0 = high number
[11] = Low concentration (RepSox 0.25 μM, GW788388 0.1 ng/ml, SB525334 0.1 μM), score: 0 = low number
[12] = Low concentration (RepSox 0.25 μM, GW788388 0.1 ng/ml, SB525334 0.1 μM), score: 3 = broader
[13] = Low concentration (RepSox 0.25 μM, GW788388 0.1 ng/ml, SB525334 0.1 μM), score: 3 = flat monolayer of cells after NECS attachment
[14] = Low concentration (RepSox 0.25 μM, GW788388 0.1 ng/ml, SB525334 0.1 μM), score: 6 = no detection of NES negative cells
[15] = Low concentration (RepSox 0.25 μM, GW788388 0.1 ng/ml, SB525334 0.1 μM)

| SMILES | Rosette (hESC [1]; [3]) | Thickness Epithelium (hESC [1]; [4]) | No Side Population (NES Neg) (hESC [1]; [5]) | Monolayer formation (hESC [1]; [6]) | Final Score (hESC [1]; [7]) | Cell death (hESC [1]; [8]) | No Side Population (OTX2 Neg) (hESC [1]; [9]) | Cell death (hESC [1]; [10]) | Rosette (hESC [1]; [11]) | Thickness Epithelium (hESC [1]; [12]) | Monolayer formation (hESC [1]; [13]) | No Side Population (NES Neg) (hESC [1]; [14]) | Final Score (hESC [1]; [15]) | neural rosette formation, RepSox compared to GW788388 (hESC [2]) | morphology of NECS (hESC [2]) | homogeneous population of neural rosettes with NES positive cells and ZO1 in the center of each rosette (hESC [2]; RepSox 25 and 50 μM (FIGS. 7 and 8)) | homogeneous population of neural rosettes with NES positive cells and ZO1 in the center of each rosette (hESC [2]; lower concentrations of RepSox (0.25 μM, 2.5 μM; FIGS. 7 and 8)) |
| --- | --- | --- | --- | --- | --- | --- | --- | --- | --- | --- | --- | --- | --- | --- | --- | --- | --- |
| NC(=O)c1ccc(-c2nc(-c3ccc4c(c3)OCO4)c(-c3ccccn3)[nH]2)cc1 [SB431542, 4-[4-(1,3-benzodioxol-5-yl)-5-(2-pyridinyl)-1H-imidazol-2-yl]benzamide] | 3 | 2 | 0 | 2 | 10 |  |  |  |  |  |  |  |  |  |  |  |  |
| c1ccc(-c2nn3c(c2-c2ccnc4cc(OCCN5CCOCC5)ccc24)CCC3)nc1 [LY2109761] | 0 | 0 | 6 | 0 | 9 | 0 | 3 |  |  |  |  |  |  |  |  |  |  |
| O=C(NC1CCOCC1)c1ccc(-c2cc(-c3cn[nH]c3-c3ccccn3)ccn2)cc1 [GW788388, N-(oxan-4-yl)-4-[4-(5-pyridin-2-yl-1H-pyrazol-4-yl)pyridin-2-yl]benzamide] | 3 | 3 | 0 | 3 | 12 | 3 |  | 2 | 2 | 2 | 3 | 0 | 9 | only few rosettes are observed | darker and denser core |  |  |
| Cc1cccc(-c2[nH]c(C(C)(C)C)nc2-c2ccc3nccnc3c2)n1 [SB525334] | 3 | 2 | 4 | 2 | 11 | 0 |  | 2 | 3 | 3 | 2 | 0 | 10 |  |  |  |  |
| Cc1cccc(-c2n[nH]cc2-c2ccc3ncccc3n2)n1 [RepSox, 2-(3-(6-Methylpyridine-2-yl)-1H-pyrazol-4-yl)-1,5-naphthyridine] | 3 | 2 | 6 | 3 | 20 |  | 3 |  | 3 | 3 | 3 | 0 | 12 | superior; also recorded: multiple neural rosettes are observed | more transparent NECS; also recorded: bright cavities | optimal to obtain an homogeneous population of neural rosettes | less clear effect |
| Cc1cccc(-c2[nH]c(CNc3ccccc3F)nc2-c2ccc3ncnn3c2)n1 [TEW-7197, 2-fluoro-N[[5-(6-methylpyridin-2-yl)-4-([1,2,4]triazolo[1,5-a]pyridin-6-yl)-1H-imidazol-2-yl]methyl]aniline] | 2 | 2 | 6 | 2 | 15 |  | 3 |  |  |  |  |  |  |  |  |  |  |
| Cc1cccc(-c2nn3c(c2-c2ccnc4ccc(C(N)=O)cc24)CCC3)n1 [LY2157299, 4-[2-(6-methylpyridin-2-yl)-5,6-dihydro-4H-pyrrolo[1,2-b]pyrazol-3-yl]quinoline-6-carboxamide] | 3 | 3 | 6 | 2 | 17 | 3 | 0 |  |  |  |  |  |  |  |  |  |  |
